Publication PMC6933707, “Palmitoylethanolamide counteracts substance P-induced mast cell activation in vitro by stimulating diacylglycerol lipase activity” (Journal of Neuroinflammation, 2019)
“And” between values parts separate entries of the source, which are not always exact repeats. Identical values can stand only once. Like-named read-outs stand apart in the source and are kept apart here.

Experiments:
[1] = biological target: T1, DAGL-β (Rattus norvegicus, UniProt P0C1S9); assay: DAGL-β enzyme activity assay (RBL-2H3 cell membranes); format: biochemical; settings: 25 μM
T1 construct: constitutive DAGL-β activity in RBL-2H3 cell membranes; endogenous in cells; host or cells: RBL-2H3
T1 sequence (P0C1S9 1-668): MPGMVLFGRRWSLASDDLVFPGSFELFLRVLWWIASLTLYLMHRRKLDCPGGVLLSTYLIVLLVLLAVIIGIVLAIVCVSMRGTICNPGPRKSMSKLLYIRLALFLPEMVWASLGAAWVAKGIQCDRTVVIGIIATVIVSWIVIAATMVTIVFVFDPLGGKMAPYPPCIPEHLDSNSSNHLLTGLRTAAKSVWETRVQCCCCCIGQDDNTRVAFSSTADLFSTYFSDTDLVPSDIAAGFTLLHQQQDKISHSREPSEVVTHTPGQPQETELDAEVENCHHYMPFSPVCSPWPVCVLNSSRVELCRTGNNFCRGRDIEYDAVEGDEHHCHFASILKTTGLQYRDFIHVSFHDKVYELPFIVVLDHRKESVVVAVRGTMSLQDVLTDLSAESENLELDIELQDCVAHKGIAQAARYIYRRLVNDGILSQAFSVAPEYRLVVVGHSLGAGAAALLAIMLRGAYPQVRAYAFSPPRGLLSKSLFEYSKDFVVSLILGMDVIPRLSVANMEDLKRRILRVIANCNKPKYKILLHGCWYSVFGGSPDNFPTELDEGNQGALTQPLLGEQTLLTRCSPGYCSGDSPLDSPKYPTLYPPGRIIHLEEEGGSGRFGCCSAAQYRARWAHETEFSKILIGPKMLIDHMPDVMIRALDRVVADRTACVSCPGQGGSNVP
Method: DAGL-β enzyme activity was assessed by using membrane preparations (100 μg of protein) obtained from RBL-2H3 cells, and 1-[^14C]oleoyl-2-arachidonoylglycerol (1.0 mCi/mmol, 50 μM, [40, 41]), as substrate in the presence of vehicle or increasing concentrations of PEA (1–25 μM) in Tris-HCl 50 mM pH 7.4 or in Tris-HCl 50 mM pH 7.4 and CaCl2 10 mM. After the incubation (20 min at 37 °C), the protocol followed the same procedures as above reported for DAGL-α enzyme activity assay. Data were expressed as % of activity of DAGL-β.

[2] = biological target: human CB2 receptor (Homo sapiens, UniProt P34972); assay: Competition binding assay for CB2 receptors ([3H]-CP-55,940 displacement); set-up: purchased Perkin Elmer; host or cells: HEK-293
Sequence of human CB2 receptor (P34972 whole entry): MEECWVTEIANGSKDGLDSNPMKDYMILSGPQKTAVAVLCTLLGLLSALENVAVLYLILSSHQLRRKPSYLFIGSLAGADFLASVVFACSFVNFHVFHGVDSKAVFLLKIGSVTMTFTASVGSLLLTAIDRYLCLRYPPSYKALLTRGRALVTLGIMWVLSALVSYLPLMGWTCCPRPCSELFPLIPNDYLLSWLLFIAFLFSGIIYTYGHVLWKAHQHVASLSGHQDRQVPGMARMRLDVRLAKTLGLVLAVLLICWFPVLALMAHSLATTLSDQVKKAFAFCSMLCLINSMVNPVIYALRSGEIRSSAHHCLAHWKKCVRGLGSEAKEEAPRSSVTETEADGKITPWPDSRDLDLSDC
Description: Data were expressed as Ki (μM) and calculated by applying the Cheng-Prusoff equation to the IC50 values for the displacement of the bound radioligand.

[3] = tested on: MGL; assay: MGL enzyme activity assay (COS-7 cytosolic fractions); format: biochemical; settings: up to 25 μM
Method: The 10,000×g cytosolic fractions obtained from COS-7 cells (100 μg of protein) were incubated with 2-arachidonoyl-[^3H]-glycerol (40 Ci/mmol, St. Louis, MO, USA) diluted with non-radiolabeled 2-AG (20 μM) in the presence of vehicle or increasing concentrations of PEA (0.1-25 μM), in Tris-HCl 50 mM pH 7.4 at 37 °C for 20 min [42]. After the incubation, the amounts of [^3H]-glycerol were measured in the aqueous phase [after extraction of the incubation mixture with 2 volumes of CHCl3/CH3OH (1:1, v/v)] by using Liquid Scintillation Analyzer (TRI-carb 2100TR).

[4] = tested on: RBL-2H3 cells; format: cell-based; settings: 15 min
Method: The relative number of live and dead cells was measured after 15 min in RBL-2H3 cells (2 × 10^5 cells/well) stimulated with SP (10 μM) and treated with PEA (10 μM) by using MultiTox-Glo multiplex cytotoxicity kit, according to the manufacturer’s instructions (Promega Italia). Relative fluorescence units (RFU) were measured by using a GloMax Multi Detection System (Promega Italia).

[5] = tested on: RBL-2H3 cells; assay: LC-APCI-MS measurement of endogenous AEA, 2-AG and PEA levels; format: cell-based, rat; settings: for increase of endogenous levels of 2-AG: 15 min
Method: RBL-2H3 cells (9 × 10^5 cells/well) were stimulated with SP (10 μM) and treated with PEA (10 μM) in the presence and absence of OMDM188 (10 μM), for 15 min at 37 °C in 5% CO2 atmosphere. After 15 min, cells and supernatants were collected and homogenized in a solution of CHCl3/CH3OH/Tris-HCl 50 mM pH 7.4 (2:1:1, v/v) containing 10 pmol of [^2H]8-AEA, [^2H]5-2-AG and [^2H]4-PEA as internal standards. The lipid-containing organic phase was dried down, weighed and pre-purified by open-bed chromatography on silica gel. Fractions obtained by eluting the column with a solution of CHCl3/CH3OH (90:10 by vol.) were analyzed by Liquid Chromatography-Atmospheric Pressure Chemical Ionization-Mass Spectrometry (LC-APCI-MS) using a Shimadzu (Shimadzu, Kyoto, Japan) HPLC apparatus (LC-10ADVP) coupled to a Shimadzu (LCMS-2020) quadrupole MS via a Shimadzu APCI interface. LC-APCI-MS analyses of 2-AG and PEA were carried out in the selected ion monitoring mode, using m/z values of 356 and 348 (molecular ions + 1 for deuterated and undeuterated AEA), 384.35 and 379.35 (molecular ions + 1 for deuterated and undeuterated 2-AG), and 304 and 300 (molecular ions + 1 for deuterated and undeuterated PEA). AEA, 2-AG and PEA levels were calculated on the basis of their area ratio with the internal deuterated standard signal areas, and their amounts (pmol) were normalized per mg of lipid extract.

[6] = SP (10 μM)-stimulated cells, PEA 10 μM, vs vehicle-stimulated cells
[7] = substance alone 10 μM, vs vehicle

CCCCCCCCCCCCCCCC(=O)NCCO [PEA, Palmitoylethanolamide]
stimulation of the activity of DAGL-β [1]: 33 ± 5.43%
[3H]-CP55,940 displacement ([2]; PEA 10 μM per se, WIN55,212-2 10 μM = 100% displacement): 33.51 ± 5.28%
Ki ([2]; compound alone, displacement of [3H]-CP-55,940, HEK-293 membranes, 90 min 30 °C): > 10 µM
inhibitory effect on MGL activity [3]: no inhibitory effect
maximal % inhibition of MGL activity [3]: < 5%
cell viability [4, 6]: did not alter
cytotoxicity [4, 6]: did not alter
cell viability [4, 7]: No effect
cytotoxicity [4, 7]: No effect
increase of endogenous levels of 2-AG ([5]; PEA 10 μM alone, in the absence of SP, compared to vehicle-treated cells): 1.8 fold and ~ 2 fold
estimated increase of 2-AG concentration in cells ([5]; SP-stimulated cells treated with PEA 10 μM vs unstimulated cells): 0.5 µM
increase of endogenous levels of 2-AG ([5]; SP-stimulated cells treated with PEA 10 μM, compared to SP-stimulated cells treated with PEA vehicle): 1.6 fold and ~ 2 fold
increase of endogenous levels of 2-AG ([5]; SP-stimulated cells treated with PEA 10 μM, compared to cells only treated with vehicle): 1.4 fold
endogenous levels of AEA ([5]; SP-stimulated cells treated with PEA 10 μM, vs SP + PEA vehicle): no statistically significant increase
estimated concentration of 2-AG in cells ([5]; SP-stimulated cells treated with PEA 10 μM, estimated from 1 mg lipids per 10 mg (10 μl) cell pellet, 0.7 μM in unstimulated cells): about 1.2 μM
increase of levels of AEA ([5]; unstimulated cells following PEA treatment (discussion)): ~ 2 fold
endogenous levels of AEA ([5]; unstimulated cells treated with PEA alone 10 μM, vs vehicle): statistically significant increase
